Measurements from patent publication US9290517B2, “Azabenzimidazole hexahydrofuro[3,2-b]furan derivatives” (Merck Sharp & Dohme Corp., priority 2012, dated 2016).
pEC50: −log10 of the molar value.

What was measured:
[1] = biological target: recombinant human AMPK complex 7 (containing α2β1γ1) (Homo sapiens (Human), UniProt P54646+Q9Y478); experiment: in vitro AMPK activation assay (AMPKSAMSF), complex 7; assay type: biochemical; details: for Emax: 10-point titration, expressed as % maximum AMP activation; for pEC50: inflection point reflecting 50% of the maximum activation, table head names AMPK complex 7
Method: AMPKSAMSF (in vitro AMPK activation assay)
The recombinant human AMPK complex 1 (containing α1β1γ1) or AMPK complex 7 (containing α2β1γ1) was obtained from baculovirus expression system. Recombinant viruses were generated by cotransfection of AMPK/pBacPak9 clones with Baculogold baculovirus DNA (Pharmingen) in spodoptera frugiperda 21 cells according to the manufacturer's instructions. Each round of virus amplification was performed for 5 days in Grace's medium containing 10% serum. Virus that had been subjected to three rounds of amplification was used for all protein production procedures. To express the AMPK complex, sf21 cells were adapted to serum free medium (SF900II, Invitrogen) by sequential dilution from serum containing stocks into SF900II medium and maintained in shaker flasks at 90 rpm at 27° C. The recombinant AMPK enzyme complex was produced by triple infection, one recombinant virus for each of the subunits, in sf21 cells under serum free conditions. Cells were infected in log phase, 1×10^6 cells/ml, at a multiplicity of infection of 5. Cells were harvested by centrifugation at 10,000×g for 15 minutes after 72 hours of infection with viruses. The insect cell pellet from 2 liters of culture was resuspended in 50 ml lysis buffer (20 mM Tris-HCl, 50 mM NaCl, 50 mM NaF, 30 mM Na PPi, 0.25 M sucrose, 10 mM ZnCl2, 2 mM DTT, 0.4 mg/ml digitonin) and subjected to two cycles of freeze-thaw lysis in a dry-ice ethanol bath. Insoluble material was removed by centrifugation at 10,000×g and the supernatant was fractionated with use of polyethylene glycol (PEG). The protein fraction precipitating between 2.5 and 6% PEG was used for further purification using a Blue-Sepharose step (Zhou et al, J. Clin. Invest. 108, 1167-1174, 2001).
The in vitro AMPK activation assay is performed in a volume of 30 μl in a 384-well plate. Enzyme reactions were assembled in the microtiter plate by adding 15 μl of 2× enzyme in assay buffer (20 mM HEPES, pH 7.3, 5 mM MgCl2, 3 mM DTT, 0.01% Brij 35 and CamK Kinase, to activate AMPK) to wells which contained either DMSO or compound. The reaction was initiated with the addition of 15 μl 2× substrate mixture containing 200 μM ATP, and 3.0 μM fluorescently labeled SAMS (5-FAM-HMRSAMSGLHLVKRR-COOH) in assay buffer. After 45-minute incubation at 25° C., the reaction was stopped by the addition of 70 μl stop buffer (100 mM HEPES, pH 7.3, 40 mM EDTA, 0.015% Brij 35). Phosphorylated 5-FAM SAMS product is assessed using a Caliper EZ Reader LabChip microfluidics reader. Product conversion is determined by calculating the peak heights of the substrate and product and reporting the product/(product+substrate) peak ratio. The 10-point titration data were expressed as % maximum AMP activation. The results were plotted using 4 parameter fit and the inflection point reflecting 50% of the maximum activation was reported as the EC50.

[2] = tested on: ob/ob and db/db mice; details: following 8 weeks of administration; cited from earlier work

Sequence of recombinant human AMPK complex 7 (containing α2β1γ1) (P54646 whole entry): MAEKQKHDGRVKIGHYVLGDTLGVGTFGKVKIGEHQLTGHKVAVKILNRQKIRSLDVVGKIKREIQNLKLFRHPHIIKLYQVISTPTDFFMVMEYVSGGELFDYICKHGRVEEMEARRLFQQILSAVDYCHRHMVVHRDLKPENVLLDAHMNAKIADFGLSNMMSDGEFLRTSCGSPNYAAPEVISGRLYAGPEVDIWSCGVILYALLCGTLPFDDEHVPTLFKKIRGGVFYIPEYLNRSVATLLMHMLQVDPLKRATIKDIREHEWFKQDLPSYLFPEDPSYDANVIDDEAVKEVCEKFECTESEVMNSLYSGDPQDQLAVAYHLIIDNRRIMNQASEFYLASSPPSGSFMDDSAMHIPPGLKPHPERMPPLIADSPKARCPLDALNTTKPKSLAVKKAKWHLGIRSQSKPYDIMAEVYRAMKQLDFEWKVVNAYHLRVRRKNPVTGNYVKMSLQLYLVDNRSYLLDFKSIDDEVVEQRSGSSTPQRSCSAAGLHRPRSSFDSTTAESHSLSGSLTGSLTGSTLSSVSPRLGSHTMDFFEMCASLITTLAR
Sequence of recombinant human AMPK complex 7 (containing α2β1γ1) (Q9Y478 whole entry): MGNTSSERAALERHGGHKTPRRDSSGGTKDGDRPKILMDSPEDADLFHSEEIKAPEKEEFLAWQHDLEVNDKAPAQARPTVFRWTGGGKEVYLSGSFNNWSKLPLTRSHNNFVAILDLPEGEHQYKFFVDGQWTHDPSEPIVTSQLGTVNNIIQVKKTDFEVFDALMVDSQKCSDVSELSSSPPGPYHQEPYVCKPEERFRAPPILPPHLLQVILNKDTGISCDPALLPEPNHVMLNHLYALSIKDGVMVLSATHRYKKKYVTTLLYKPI
Sequence of recombinant human AMPK complex 7 (containing α2β1γ1) (P54619 whole entry partner): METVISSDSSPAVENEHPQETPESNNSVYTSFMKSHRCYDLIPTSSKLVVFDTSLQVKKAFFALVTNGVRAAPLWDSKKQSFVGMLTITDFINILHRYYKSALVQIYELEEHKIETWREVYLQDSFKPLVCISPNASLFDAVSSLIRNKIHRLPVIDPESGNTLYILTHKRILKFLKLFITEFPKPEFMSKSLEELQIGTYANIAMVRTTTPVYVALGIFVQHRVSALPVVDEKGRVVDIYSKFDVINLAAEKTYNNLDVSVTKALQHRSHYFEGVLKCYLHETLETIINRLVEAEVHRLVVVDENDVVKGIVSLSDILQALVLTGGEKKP

SMILES | Emax [1] | pEC50 [1] | blood glucose reduction [2]
O=c1ncn(-c2ccc(-c3ccc(-c4nc5nc(O[C@@H]6CO[C@H]7[C@@H]6OC[C@H]7O)[nH]c5cc4Cl)cc3)cc2)[nH]1 [Example 129] | 305% | 9.00 | 
CN(C)CCOc1ccc(-c2ccc(-c3nc4nc(O[C@@H]5CO[C@H]6[C@@H]5OC[C@H]6O)[nH]c4cc3Cl)cc2)cc1 [Example 151] | 323% | 8.70 | 
CC(C)(O)CN1Cc2cn(-c3ccc(-c4nc5nc(O[C@@H]6CO[C@H]7[C@@H]6OC[C@H]7O)[nH]c5cc4Cl)cc3)nc2C1 [Example 14, (3R,3aR,6R,6aR)-6-[[6-chloro-5-[4-[5-(2-hydroxy-2-methyl-propyl)-5,6-dihydro-4H-pyrrolo[3,4-c]pyrazol-5-ium-2-yl]phenyl]-1H-imidazo[4,5-b]pyridin-2-yl]oxy]-2,3,3a,5,6,6a-hexahydrofuro[3,2-b]furan-3-ol; 2,2,2-trifluoroacetate] | 276% | 7.54 | 
O=c1[nH]c(-c2ccc(-c3ccc(-c4nc5nc(O[C@@H]6CO[C@H]7[C@@H]6OC[C@H]7O)[nH]c5cc4Cl)cc3)cc2)no1 [Example 138] | 333% | 8.40 | 
O=c1ccn(-c2ccc(-c3ccc(-c4nc5nc(O[C@@H]6CO[C@H]7[C@@H]6OC[C@H]7O)[nH]c5cc4Cl)cc3)cc2)[nH]1 [Example 150] | 322% | 9.00 | 
O[C@@H]1CO[C@H]2[C@@H]1OC[C@H]2Oc1nc2nc(-c3ccc(-c4ccc(C5Cc6nccn6C5)cc4)cc3)c(Cl)cc2[nH]1 (stereo partly drawn) [Example 126] | 303% | 8.52 | 
CC(CO)(CO)c1ccc(-c2ccc(-c3nc4nc(O[C@@H]5CO[C@H]6[C@@H]5OC[C@H]6O)[nH]c4cc3Cl)cc2)cc1 [Example 79] | 337% | 8.70 | 
O=C(O)C1CCC(c2ccc(-c3ccc(-c4nc5nc(O[C@@H]6CO[C@H]7[C@@H]6OC[C@H]7O)[nH]c5cc4Cl)cc3)cc2)=N1 (stereo partly drawn) [Example 125] | 350% | 8.22 | 
O=C(O)CCCc1ccc(-c2ccc(-c3nc4nc(O[C@@H]5CO[C@H]6[C@@H]5OC[C@H]6O)[nH]c4cc3Cl)cc2)cc1 [Example 86] | 314% | 8.40 | 
C=CCO[C@@H]1CO[C@H]2[C@@H]1OC[C@H]2Oc1nc2nc(-c3ccc(-c4ccccc4)cc3)c(Cl)cc2[nH]1 [Example 18] | 72% | 8.22 | 
N#Cc1ccc(-c2ccc(-c3nc4nc(O[C@@H]5CO[C@H]6[C@@H]5OC[C@H]6O)[nH]c4cc3Cl)cc2)c(F)c1 [Example 102] | 304% | 8.30 | 
CC1(c2ccc(-c3ccc(-c4nc5nc(O[C@@H]6CO[C@H]7[C@@H]6OC[C@H]7O)[nH]c5cc4Cl)cc3)cc2)COC1 [Example 145] | 348% | 8.10 | 
O=c1[nH]ccn1-c1ccc(-c2ccc(-c3nc4nc(O[C@@H]5CO[C@H]6[C@@H]5OC[C@H]6O)[nH]c4cc3Cl)cc2)cc1 [Example 73] | 357% | 8.40 | 
O[C@@H]1CO[C@H]2[C@@H]1OC[C@H]2Oc1nc2nc(-c3ccc(-c4ccc(Cn5ncnn5)cc4)cc3)c(Cl)cc2[nH]1 [Example 142] | 337% | 8.70 | 
Cn1c(-c2ccc(-c3ccc(-c4nc5nc(O[C@@H]6CO[C@H]7[C@@H]6OC[C@H]7O)[nH]c5cc4Cl)cc3)cc2)cnc1N [Example 127] | 281% | 8.40 | 
OCc1ccc(-c2ccc(-c3nc4nc(O[C@@H]5CO[C@H]6[C@@H]5OC[C@H]6O)[nH]c4cc3Cl)cc2)cc1 [Example 146] | 354% | 8.40 | 
NC(=O)c1ncn([C@@H]2O[C@H](CO)[C@@H](O)[C@H]2O)c1N [AICAR] |  |  | 35%
CCN(CC)c1ccc(-c2ccc(-c3nc4nc(O[C@@H]5CO[C@H]6[C@@H]5OC[C@H]6O)[nH]c4cc3Cl)cc2)cc1 [Example 105] | 268% | 8.30 | 
Oc1ccnc(-c2ccc(-c3ccc(-c4nc5nc(O[C@@H]6CO[C@H]7[C@@H]6OC[C@H]7O)[nH]c5cc4Cl)cc3)cc2)n1 [Example 130] | 291% | 8.70 | 
O[C@@H]1CO[C@H]2[C@@H]1OC[C@H]2Oc1nc2nc(-c3ccc(C#CC4CCNCC4)cc3)c(Cl)cc2[nH]1 [Example 71] | 420% | 8.00 | 
Cc1cc(-c2ccc(-c3ccc(-c4nc5nc(O[C@@H]6CO[C@H]7[C@@H]6OC[C@H]7O)[nH]c5cc4Cl)cc3)cc2)c(=O)[nH]n1 [Example 131] | 289% | 8.52 | 
Cc1nnc(-c2ccc(-c3ccc(-c4nc5nc(O[C@@H]6CO[C@H]7[C@@H]6OC[C@H]7O)[nH]c5cc4Cl)cc3)cc2)o1 [Example 87] | 285% | 8.52 | 
O=C1CC(c2ccc(-c3ccc(-c4nc5nc(O[C@@H]6CO[C@H]7[C@@H]6OC[C@H]7O)[nH]c5cc4Cl)cc3)cc2)CN1 (stereo partly drawn) [Example 149] | 322% | 8.70 | 
O[C@@H]1CO[C@H]2[C@@H]1OC[C@H]2Oc1nc2nc(-c3ccc(-c4ccc(-n5cc(C(O)(O)C(F)(F)F)nn5)cc4)cc3)c(Cl)cc2[nH]1 [Example 128] | 286% | 8.70 | 
O[C@@H]1CO[C@H]2[C@@H]1OC[C@H]2Oc1nc2nc(-c3ccc(-c4ccc(Cn5ccnc5)cc4)cc3)c(Cl)cc2[nH]1 [Example 147] | 348% | 8.40 | 
O[C@@H]1CO[C@H]2[C@@H]1OC[C@H]2Oc1nc2nc(-c3ccc(-c4ccc(C5CNCCO5)cc4)cc3)c(Cl)cc2[nH]1 (stereo partly drawn) [Example 133] | 359% | 9.00 | 
